Measurements: publication PMC10102027, “Helquat dyes targeting G-quadruplexes as a new class of anti-HIV-1 inhibitors” (Scientific Reports, 2023)
pEC50: −log10 of the molar value. “Also recorded” adds a separate entry of the source.

Columns and labels:
HIV-1 (NL4-3 strain) = assay: CPE-based antiviral assay in HIV-1-infected MT-4 cells (XTT); assay type: cell-based; conditions: Human immunodeficiency virus 1, NL43, MT4, 120 h, cytopathic effect-based assay, MT-4 cells infected by HIV-1 (NL4-3 strain), 5 days post-infection
From the text: Based on a facile [2 + 2 + 2]‐cycloisomerization strategy, a robust three‐step synthetic entry into a novel family of helical extended diquats (helquats) was developed. After a straightforward Knoevenagel condensation of the respective helquat parent with different aldehydes (Fig. 2A), more than 500 helquat-based compounds were synthesized and screened for anti-HIV-1 activity in an assay based on the inhibition of the virus-induced cytopathic effect in MT-4 cells, evaluated after 5 days post-infection by an XTT assay. In parallel with the screening, the XTT assay was also used to determine the cytotoxicity of all compounds (Fig. 2B; for more information on the synthesis and characterization of the compounds, see the Supplementary Information). […]
XTT screening. MT-4 cells were seeded in 80 µl of the RPMI without Phenol Red in the amount of 3x10^4 cells per well of a 96-well plate. 10 µl of tested compounds (500 µM at 5% DMSO) or controls (5% DMSO at PBS, AZT 1mM, SQV 100 µM) were added to the cells; after one-hour incubation at 37 °C, HIV-1 (NL4-3 strain) was added with MOI = 0.05 and the infected cells were cultivated for five days.
The viability of the cells was measured by the XTT cell viability and proliferation assay. Briefly, 50 µl of the XTT solution with the addition of PMS (both VWR) was added to the cultivation media and incubated in a humidified incubator maintained at 37 °C with 5% CO2 for four hours, after which absorbance at 560 nm was measured on a VICTOR plate reader (PerkinElmer). […]
For compounds selected as hits in the initial screening, the effective concentration that inhibits 50% of the viral activity (EC50) and the cytotoxic concentration that reduces the MT -4 cell viability by 50% (CC50) were determined. Viral activity was evaluated after five days as an HIV-1-induced cytopathic effect quantified by the XTT assay. Selected hits were tested at two-fold serial dilutions from 50 µM concentration, and the drug concentrations required to reduce the viral cytopathic effect by 50% (EC 50) as well as the drug concentrations that reduced MT-4 cell viability by 50% (CC50) were calculated by nonlinear regression using GraphPad Prism v.8.0.0 (GraphPad Software).

HIV-1 = assay: Adsorption assay (RT activity in supernatant); assay type: cell-based; conditions: 10 µM, compound and virions added to MT-4 cells simultaneously, washed out after 2 h, RT activity 5 days after infection
Protocol: To address virion binding and entry in a competitive setting, we performed an adsorption assay where test compounds and virions were added to MT-4 cells simultaneously and were washed out after 2 h of incubation. In parallel, we performed a replication assay where MT-4 cells were infected with HIV-1 and the tested compounds were added 1 h later. In both cases, the infection was evaluated by measuring reverse transcriptase activity in a cell-free supernatant 5 days after the infection (Fig. 3). As controls, PBS (phosphate-buffered saline) and inhibitors of different HIV-1 life-cycle steps were used: AMD (AMD3100), an inhibitor of gp120 attachment to CXCR4 receptors of the target cell, thus preventing HIV-1 adsorption and entry; AZT (azidothymidine), an inhibitor of reverse transcriptase; and RAL (raltegravir), an integrase inhibitor.
MT-4 cells were seeded in 80 µl of the Roswell Park Memorial Institute (RPMI) medium in the amount of 2 × 10^5 cells per well of a 96-well plate, and 10 µl of the virus stock were immediately added with the final multiplicity of infection (MOI) of 0.05. For a replication assay, the infected cells were incubated at 37 °C for 1 h before the addition of compounds being tested (10 µM final concentration) and subsequently cultivated at 37 °C for another 5 days. For an adsorption test, by contrast, the compounds (10 µM final concentration) were added simultaneously with the virus, and after 2 h of incubation, the cells were washed three times with PBS to remove the compounds and unbound virions; after the addition of 100 µl of the RPMI medium, the cells were cultivated at 37 °C for 5 days. Five days post-infection, aliquots of virus-containing cell-free supernatants were harvested and analysed by reverse transcriptase (RT) assay (described in the Supplementary Information). The experiments were performed as biological replicates where the sample size for each condition was n = 3.
RT assay. The reverse transcriptase (RT) activity in a cell-free supernatant was assessed by an α-32P RT assay. Briefly, the RT activity in the culture medium, which corresponded to the amount of HIV-1, was used to produce a DNA copy of an RNA template by extending a complementary oligo dT DNA primer with radiolabelled nucleotides. A reaction mixture containing 50 mM Tris-HCl pH 7.8, 75 mM KCl, 2 mM DTT, 5 mM MgCl2 and 0.5% NP-40 (all Sigma-Aldrich), 5 µg per ml of poly (rA)-poly (dT) (The Midlan Certified Reagent Company) with 1 µl 10-mCi/ml [α-32P]dTTP (American Radiolabeled Chemicals) per ml, and the tested sample was incubated at 37°C for two hours, after which 10 µl were spotted on DEAE blotting paper (PerkinElmer) and air-dried. After five washes with SSC buffer (0.15 M NaCl, 0.015 M sodium citrate) and three additional washes with 85% ethanol, the blotting paper was exposed to Phosphoscreen overnight, which was scanned on a Typhoon 9410 Phosphorimager instrument (GE Healthcare). The intensity of the dots was analysed by the ImageQuant software (GE Healthcare).

[1] = tested on: HIV-1 LTR G-quadruplex template (G4 LTR Stop); assay: Taq polymerase stop assay; assay type: biochemical; conditions: for Fold change, all regions (A, B and C) together: normalized against control; for Fold change: A (G-patch 6′) / Fold change: B (G-patch 6) / Fold change: C (G-patch 5): 2.5 µM, pixel intensity normalized against negative control; for G-quadruplex stabilization / stop band pattern: Taq polymerase pausing at G-patches, 1-5 μM
Protocol: To address specifically the positions in the HIV-1 promoter region that are affected by the binding of G4-stabilizing agents, we performed a Taq polymerase stop assay. The wild-type LTR oligonucleotide was extended at the […] to include a primer-annealing region and used as a template for a single-cycle Taq polymerase reaction. The elongation of the radioactively labelled primer was performed at 45 °C in the presence or absence of the tested compounds and controls.
A Taq polymerase stop assay was carried out as described in a previous study. Briefly, the primer (G4 LTR primer, Supplementary Table S1) was 5′-end labelled with [γ-^32P]ATP using T4 polynucleotide kinase at 37 °C for 30 min. The T4 polynucleotide kinase was then inactivated by incubation at 65 °C for 5 min. The radioactively labelled primer was column-purified and stored at − 20 °C for further use. The labelled primer (1.7 pmol) was annealed to the template (2.1 pmol) in the LiCaco buffer and extended with the Go Taq DNA polymerase (2U/reaction, Promega) at 45 °C for 45 min. Samples were incubated with G-quadruplex-ligands at 45 °C for 45 min before DNA polymerase addition. The reactions were stopped by a denaturing solution (80% formamide, 10% glycerol, 0.025% xylen cyanol, 0.025% bromphenol blue and 10 mM EDTA pH 8); extension products were separated on 15% denaturing gel and visualized by phosphorimaging. The pixel intensity of bands was calculated using 1D gel analysis in ImageQuant TL software version 8.1 (GE HealthCare) after automatic background subtraction by Rolling Ball method.

SMILES | pEC50 (HIV-1 (NL4-3 strain)) | effect on virus adsorption (HIV-1) | Fold change, all regions (A, B and C) together ([1]; 1 μM) | Fold change, all regions (A, B and C) together ([1]; 2.5 μM) | Fold change: A (G-patch 6′) [1] | Fold change: B (G-patch 6) [1] | Fold change: C (G-patch 5) [1] | Fold change, all regions (A, B and C) together ([1]; 5 μM) | G-quadruplex stabilization / stop band pattern [1]
COc1ccc2ccccc2c1/C=C/c1cc[n+]2c(c1)-c1c(c(C)c(C)c3c1-c1cc(/C=C/c4c(OC)ccc5ccccc45)cc[n+]1CC3)CC2 [Compound 15] | 5.56 | minimal or no effect on virus adsorption | 1.6 | 2.4 | 2.8 | 2.5 | 1.8 | 2.5 | strong stop bands also in G-patch 6′; also recorded: exhibit their stabilization effect even at 1 μM concentration
C(=C\c1cc(/C=C/c2ccc3c(c2)CCO3)[n+]2c(c1)-c1c(ccc3c1-c1cccc[n+]1CCC3)CCC2)/c1ccc2c(c1)CCO2 [Compound 14] | 5.57 | minimal or no effect on virus adsorption | 1.2 | 1.7 | 1.4 | 2.0 | 1.5 | 1.8 | stop bands only in G-patch 6
Cn1cc(/C=C/c2cc(/C=C/c3cn(C)c4ccccc34)[n+]3c(c2)-c2c(ccc4c2-c2cccc[n+]2CCC4)CCC3)c2ccccc21 [Compound 12] | 5.57 | minimal or no effect on virus adsorption | 1.4 | 1.9 | 1.9 | 2.1 | 1.5 | 1.8 | exhibit their stabilization effect even at 1 μM concentration; also recorded: stop bands only in G-patch 6
